# Measurements as given in patent US9555086B2, “Compositions and methods for inducing an immune response” (The Regents of the University of Michigan, priority 2010, dated 2017).
# Tested on: Th17 cells
# Test: ISL polarizing effect in vivo (CII in CFA immunization)
# Parameters: species or system DBA/1 mice
# Experimental: (A) DBA/1 mice were immunized with CII in CFA in the presence of PBS, 65-79*0401 or 65-79*0402. On day 7, cells from draining lymph nodes were isolated, cultured for 6 hours with PMA, Ionomycin and Brefeldin A and then stained with anti-mouse CD4, IL17A and IFN-γ as above. On the left: Representative dot plots showing percentages of IL17A+ and IFN-γ+ cells obtained from gated CD4+ cells. On the right, bar graphs showing results as mean±SD of duplicate experiments. (B) DBA/1 and CII-TCR Tg mice were immunized as in (A). On day 7, splenic cells were isolated and cultured with the synthetic peptide CII260-267 (5 μg/ml). Supernatants were collected every 24 hours and assayed for IL-17 levels by ELISA.
# Mice were injected subcutaneously in the footpad with 100 μg of chicken collagen type II (CII) (Chondrex, Inc, Redmond, Wash.) emulsified in CFA (4 mg/ml). The inoculums contained 10 μg of either ISL-positive 65-79*0401 or ISL-negative 65-79*0402 ligands in PBS, or an equal volume of PBS alone. Animals were sacrificed 7 days after immunization. For Th17 quantification studies, inguinal and popliteal lymph nodes were collected and single cell suspensions were prepared. Unfractionated lymph node cells were cultured with PMA, Ionomycin and Brefeldin A for 6 hours as above. Cells were stained with FITC anti-mouse CD4 or isotype controls, followed by fixation and permeabilization using a Cytofix-Cytoperm™ kit. After permeabilization, intracellular staining was performed using PE-conjugated anti-mouse IL17A and APC-conjugated anti-mouse IFN-γ and cells were analyzed by flow cytometry as above. To measure IL-17 production, splenocytes from mice immunized as above were stimulated in vitro with 5 μg of CII259-273 peptide. At different time points thereafter, supernatants were collected and assayed for IL-17 by ELISA as above.
substance,measurement,setting,value
H-KDLLEQKRAAVDTYC-NH2 [65-79*0401],Th17 abundance in draining lymph nodes,"10 μg co-administered with CII in CFA, footpad, day 7",dramatically increased
same,CII-stimulated IL-17 production by splenocytes,compared to mice co-immunized with 65-79*0402,significantly more robust
same,frequency of Th1 (IFNγ-positive) cells,"draining lymph nodes, day 7",no change
